Here are results for 2 molecules from ChEMBL document CHEMBL4043072, “Catechin-Bound Ceanothane-Type Triterpenoid Derivatives from the Roots of Zizyphus jujuba” (J Nat Prod, 2017).

By IC50 is commonly meant the concentration needed to halve the response being measured. High values mean a need for much substance, low ones inhibition by little substance.

The nature of this experiment: Inhibition of cell proliferation of activated rat HSC-T6 cells incubated for 24 hrs by MTT assay. Type of experiment: functional, cell-based. Particulars: HSC-T6, 24 h. On the technique in general: Tetrazolium assays rely on reduction of a dye to a coloured formazan, in cell work by metabolically active cells.

Regarding `C=C(C)[C@@H]1CC[C@]2(C(=O)O)CC[C@]3(C)[C@H](CC[C@@H]4[C@@]5(C)[C@H]6C(=O)c7c(cc(O)c8c7O[C@@H](c7ccc(O)c(O)c7)[C@@H](O)C8)O[C@@H]6C(C)(C)[C@@H]5CC[C@]43C)[C@@H]12`, the half-inhibitory concentration (IC50) turned out to be 43.5 µM. With `O=C(O[C@@H]1Cc2c(O)cc(O)cc2O[C@@H]1c1cc(O)c(O)c(O)c1)c1cc(O)c(O)c(O)c1` [EPIGALOCATECHIN GALLATE], the IC50 stood at 31.6 µM.
